Experimental data as given in ChEMBL document CHEMBL3822389, “New insights into 3-(aminomethyl)naphthoquinones: Evaluation of cytotoxicity, electrochemical behavior and search for structure-activity correlation” (Bioorg Med Chem Lett, 2016).

Experiments:
[1] = system: MDA-MB-435; experiment: Cytotoxicity against human MDA-MB-435 cells after 72 hrs by MTT assay; format: functional, cell-based; settings: mda-mb-435
[2] = Cytotoxicity against human HCT8 cells after 72 hrs by MTT assay; format: functional, cell-based, HCT-8; settings: hct-8
[3] = Cytotoxicity against human SF295 cells after 72 hrs by MTT assay; format: functional, cell-based, SF-295; settings: sf-295
[4] = Cytotoxicity against human HL60 cells after 72 hrs by MTT assay; format: functional, cell-based, HL-60; settings: Homo sapiens, HL-60, 72 h

Q: Which results are given for `O=C1C(O)=C(C(NCc2ccco2)c2ccccc2O)C(=O)c2ccccc21` (centres undefined)?
A: IC50 [1]: 20.2 µM; IC50 [2]: 14.4 µM; IC50 [3]: 23.4 µM; IC50 [4]: 1.1 µM
